Experimental data published in patent US20040166062A1, “Ablation therapy using chemical shift magnetic resonance imaging” (priority 2003, published 2004).

How the values were obtained:
[1] = system: hepatic tumor; assay: Paper example: CS-MRI guided chemical ablation of a hepatic tumor; conditions: for outcome of chemical ablation therapy: hepatic tumor, slow injection under CS-MRI
Procedure: (§1) An MR-compatible needle is advanced into the lesions to introduce the ablation agent.
A patient presents for ethanol ablation therapy of a hepatic tumor. The patient is prepared by placement on the MRI scanner platform and the spectrometer is calibrated for ^13C-labeled ethanol using standard T1 and T2-weighted imaging. An MR-compatible needle is advanced into the lesions to introduce the ablation agent. Dynamic two-dimensional, chemical shift MRI is performed during the slow injection of ^13C-labeled ethanol. The distribution of ^13C-labeled ethanol is then directly visualized using chemical shift MRI.
A patient presents for hot saline ablation therapy of a hepatic tumor. The patient is prepared by placement on the MRI scanner platform and the spectrometer is calibrated for ^23Na-labeled saline using standard T1 and T2-weighted imaging. An MR-compatible needle is advanced into the lesions to introduce the ablation agent. Dynamic two-dimensional, chemical shift MRI is performed during the slow injection of ^23Na-labeled saline. The distribution of ^23Na-labeled saline is then directly visualized using chemical shift MRI.

[2] = system: hepatocellular carcinoma less than about 3 cm; conditions: randomized, controlled trial, patients with hepatocellular carcinoma less than about 3 cm; cited from earlier work
[3] = system: unresectable hepatocellular carcinoma
Procedure: After obtaining standard T1 and T2-weighted imaging, an MR-compatible 10 cm long, 22-gauge needle was advanced into the lesions. Baseline imaging was performed using a water-suppressed two-dimensional spoiled gradient-echo pulse sequence. […] The scanning parameters were: 30 degree flip angle, TE=4.2 msec, TR=34 msec, 34-38 cm field-of-view, ±16 kHz receiver bandwidth, 256×128 matrix, and 7 mm slice thickness.

[4] = system: breast tumor
Source text: as §1

[5] = system: prostate tumor
Source text: as §1

[6] = system: renal tumor
Source text: as §1

[7] = system: lung tumor
Source text: as §1

[8] = system: calf liver; conditions: calf liver ex vivo, 8 cc glacial acetic acid injected by hand over 2 minutes
Source text: An MRI-compatible, 10 cm, 22-gauge needle was inserted into a calf liver that was placed in a transmit/receive birdcage coil. […] The offset frequency of the chemical saturation pulse was set at 170 Hz. […] A complete 3D data set was acquired every 15 seconds. Scanning parameters were: 20 degree flip angle, TE=4.2 msec, TR=34 msec, matrix=256×128×4, 1 signal average, and 32 kHz receiver bandwidth. A total of 15 temporal phases was acquired, each with approximately 15 second time resolution.
The time after injection appears in seconds in the lower left corner of each frame.

[9] = system: multifocal hepatoma; conditions: Patient 3, post-injection, signal low in intensity

## ^13C-labeled ethanol
[1]
  outcome of chemical ablation therapy: successful in destroying the tumor
[1]; in vivo
  damage to surrounding tissues: without damage to surrounding tissues

## CC(=O)O [acetic acid]
[2]
  effectiveness of ablation compared with ethanol ablation: more effective than ethanol ablation
[3]; Patient 2
  size of the lesion versus distribution of the agent: closely matches
[3]; in vivo
  extra-hepatic extravasation of the agent: No extra-hepatic extravasation of the agent is observed
[4]
  outcome of chemical ablation therapy: successful in destroying the tumor
[5]
  outcome of chemical ablation therapy: successful in destroying the tumor
[6]
  outcome of chemical ablation therapy: successful in destroying the tumor
[7]
  outcome of chemical ablation therapy: successful in destroying the tumor
[8]
  distribution of the agent at the injection site on CS-MRI: focal accumulation of acetic acid adjacent to the needle tip

## CCO [ethanol]
[9]
  distribution of the agent on CS-MRI: focal signal accumulation due to ethanol injection is observed

## ^13C-labeled acetic acid
[1]
  outcome of chemical ablation therapy: successful in destroying the tumor
